Assay results taken from patent publication US4004008A, “O-Tertiary amino-alkyl-N-benzoyl tyrosil amides” (priority 1974, dated 1977).

How the values were obtained:
[1] = Acute toxicity (DL50) i.v. in rat; format: in vivo; conditions: in vivo, iv, dose causing death in 50% of the animals
Procedure: In this table (n. 1) there are recorded the compounds described in the examples with their relative serial numbers, the acute toxicity, the antispastic activity observed in two experimental tests, one "in vivo" and one "in vitro". There are moreover recorded two therapeutic indices which take account of the toxicity of these compounds in relation to their in vivo and in vitro activity. More precisely:
A. DL50 which, as is known, is the quantity of the substance expressed in mg/kg of animal weight, capable of causing death in 50% of the animals treated.

[2] = tested on: ileum of a cavy (BaCl2 spasm); test: Antispastic activity in vitro, Magnus method, cavy ileum stimulated with BaCl2; format: cell-based; conditions: ratio to papaverine = 1; Table 1; 37°
Procedure: C. The method in vitro is that of Magnus, with the ileum of the cavy, and is in common use for all evaluations. It consists of extracting the ileum from the cavy and placing it in a receptacle which contains nutritive liquid, suitably oxygenated, and registering the movements of the organ which remains alive for several hours if maintained at a temperature of 37°. According to the traditional method followed by us, BaCl2 is put into the bath as a spasmisant: the reaction is a violent contraction of the organ. This contraction can be prevented by adding beforehand pharmaceuticals which inhibit spasms, and in this case our compounds.
The values recorded are expressed as relation between papaverine and the ED50 of our compounds. (As is known, the ED50 is the dose which results in a 50% reduction in spastic contraction).
E. I.T.2 is the therapeutic index under the profile of the antispastic activity in vitro and is given by the product between the in vitro antispastic activity index (column 4) and the corresponding DL50 (column 2).

[3] = tested on: intestinal transit of the charcoal; test: Vegetable carbon (charcoal) intestinal transit test in vivo; design: species or system rat; conditions: i.v., rat, charcoal test, 2 hours; for ED50: Rattus norvegicus, iv, 2 h, read-out: Antisp. activity in transit test: ED50
Procedure: B. The vegetable carbon method in vivo (charcoal method) which consists of administering by oral means to rats, which have fasted for 24 hours, 0.3ml/per rate of a mixture consisting of: 10g of charcoal and 5 g of gum arabic suspended in a volume of 100 cc of H2 O as well as at the same time the substance being studied, accordingly as desired, generally i.v., s.c., oral. After two hours the animals are killed and those are taken to be negative in which the charcoal has reached the first portion of the colon and the others positive, in the sense that the substance administered has slowed down the intestinal transit of the charcoal.
In effect the animals treated with a physiological solution (checks) are all negative after two hours.
D. I.T.1 is the therapeutic index under the profile of the antispastic activity in vivo, and it is obtained by recording the DL50 (column 2) with the ED50 of the charcoal test (column 3).

## CCCCNC(=O)C(Cc1ccc(OCCN(CC)CC)cc1)NC(=O)c1ccc(Cl)cc1 (racemic) [CR 729, O-(2-diethylamino-ethyl)-N-(p-chloro-benzoyl)-DL-tyrosil-n-butylamide]
[1]
  LD50: 38.6 mg/kg
[2]
  Antisp. activity in vitro on the ileum of a cavy by Stim. BaCl2: ED50 pap./ED50 CR: 2.45
[3]
  ED50: 23 mg/kg

## CCCN(CCC)C(=O)C(Cc1ccc(OC(C)C(C)CN(CC)CC)cc1)NC(=O)c1ccccc1 (racemic) [CR 700, O-(3-diethylamino-1,2-dimethyl-propyl)-N-benzoyl-DL-tyrosil-di-n-propylamide]
[1]
  LD50: 19.3 mg/kg
[3]
  ED50: 20.4 mg/kg

## CCCCNC(=O)C(Cc1ccc(OCCN2CCCC2)cc1)NC(=O)c1ccccc1 (racemic) [CR 648, O-(2-pyrrolidil-N'-ethyl)-N-benzoyl-DL-tyrosil-n-butylamide]
[1]
  LD50: 35.6 mg/kg
[2]
  Antisp. activity in vitro on the ileum of a cavy by Stim. BaCl2: ED50 pap./ED50 CR: 0.16
[3]
  ED50: 10.7 mg/kg

## CN(C)CCOc1ccc(CC(NC(=O)c2ccccc2)C(=O)N2CCOCC2)cc1 (racemic) [CR 611, O-(2-dimetylamino-ethyl)-N-benzoyl-DL-tyrosil-morpholilamide]
[1]
  LD50: 108 mg/kg
[3]
  ED50: 59.8 mg/kg

## CCCN(CCC)C(=O)C(Cc1ccc(OCCN(CC)CC)cc1)NC(=O)c1ccc(OC)cc1 (racemic) [CR 644, O-(2-diethylamino-ethyl)-N-(p-metoxy-benzoyl)-DL-tyrosil-di-n-propylamide]
[1]
  LD50: 56.4 mg/kg
[2]
  Antisp. activity in vitro on the ileum of a cavy by Stim. BaCl2: ED50 pap./ED50 CR: 0.45
[3]
  ED50: 20.2 mg/kg

## CCN(CC)CCOc1ccc(CC(NC(=O)c2ccccc2)C(=O)N(CC)CC)cc1 (racemic) [CR 734, O-(2-diethylamino-ethyl)-N-benzoyl-DL-tyrosil-di-ethylamide]
[1]
  LD50: 62.2 mg/kg
[2]
  Antisp. activity in vitro on the ileum of a cavy by Stim. BaCl2: ED50 pap./ED50 CR: 0.52
[3]
  ED50: 33.4 mg/kg

## CCCN(CCC)C(=O)C(Cc1ccc(OCCCN2CCN(CCO)CC2)cc1)NC(=O)c1ccccc1 (racemic) [CR 609, O-[3-(N"-hydroxyethyl-piperazine)-N'-propyl]-N-benzoyl-DL-tyrosil-di-n-propylamide]
[1]
  LD50: 139 mg/kg
[2]
  Antisp. activity in vitro on the ileum of a cavy by Stim. BaCl2: ED50 pap./ED50 CR: 0.68
[3]
  ED50: 50.5 mg/kg

## CCCN(CCC)C(=O)C(Cc1ccc(OCCCCN(CC)CC)cc1)NC(=O)c1ccccc1 (racemic) [CR 829, O-(4-diethylamino-butyl)-N-benzoyl-DL-tyrosil-di-n-propylamide]
[1]
  LD50: 20.1 mg/kg
[3]
  ED50: 15.2 mg/kg

## CCNC(=O)C(Cc1ccc(OCCCN2CCN(C)CC2)cc1)NC(=O)c1ccc(Cl)cc1 (racemic) [CR 714, O-[3-(N"-methyl-piperazine)-N'-propyl]-N-(p-chloro-benzoyl)-DL-tyrosil-ethylamide]
[1]
  LD50: 111 mg/kg
[2]
  Antisp. activity in vitro on the ileum of a cavy by Stim. BaCl2: ED50 pap./ED50 CR: 0.42
[3]
  Antisp. activity in transit test: ED50: inactive

## CCCN(CCC)C(=O)C(Cc1ccc(OCCN(CC)CC)cc1)NC(=O)c1ccc(Cl)cc1 [CR 831, O-(2-diethylamino-ethyl)-N-(p-chloro-benzoyl)-L-tyrosil-din-propylamide]
[1]
  LD50: 35 mg/kg
[2]
  Antisp. activity in vitro on the ileum of a cavy by Stim. BaCl2: ED50 pap./ED50 CR: 1.30
[3]
  ED50: 24.4 mg/kg

## CCN(CC)CCOc1ccc(CC(NC(=O)c2ccccc2)C(=O)N(C)C)cc1 (racemic) [CR 738, O-(2-diethylamino-ethyl)-N-benzoyl-DL-tyrosil-di-methylamide]
[1]
  LD50: 85.3 mg/kg
[2]
  Antisp. activity in vitro on the ileum of a cavy by Stim. BaCl2: ED50 pap./ED50 CR: 0.14
[3]
  ED50: 50.6 mg/kg

## CCCN(CCC)C(=O)C(Cc1ccc(OCCN(C)C)cc1)NC(=O)c1ccc([N+](=O)[O-])cc1 (racemic) [CR 620, O-(2-dimethylamino-ethyl)-N-(p-nitro-benzoyl)DL-tyrosil-di-n-propylamide]
[1]
  LD50: 117 mg/kg
[2]
  Antisp. activity in vitro on the ileum of a cavy by Stim. BaCl2: ED50 pap./ED50 CR: 0.36
[3]
  Antisp. activity in transit test: ED50: inactive

## CCCN(CCC)C(=O)C(Cc1ccc(OCCN2CCCCC2)cc1)NC(=O)c1ccccc1 (racemic) [CR 630, O-(2-piperidil -N'-ethyl)-N-benzoyl-DL-tyrosil-di-n-propylamide]
[1]
  LD50: 36.1 mg/kg
[3]
  ED50: 40.1 mg/kg

## CCN(CC)C(=O)C(Cc1ccc(OCCN2CCN(C)CC2)cc1)NC(=O)c1ccccc1 (racemic) [CR 736, O-[2-(N"-methyl-piperazine)-N'-ethyl]-N-benzoyl-DL-tyrosildiethylamide]
[1]
  LD50: 102 mg/kg
[2]
  Antisp. activity in vitro on the ileum of a cavy by Stim. BaCl2: ED50 pap./ED50 CR: 0.04
[3]
  ED50: 39.6 mg/kg

## CN(C)CCOc1ccc(C[C@H](NC(=O)OCc2ccccc2)C(=O)N2CCOCC2)cc1 [CR 606, O-(2-dimethylamino-ethyl)-N-carbobenzoxy-L-tyrosil-morpholylamide]
[1]
  LD50: 128 mg/kg
[2]
  Antisp. activity in vitro on the ileum of a cavy by Stim. BaCl2: ED50 pap./ED50 CR: 0.19
[3]
  Antisp. activity in transit test: ED50: inactive

## CCCN(CCC)CCOc1ccc(CC(NC(=O)c2ccccc2)C(=O)N(CCC)CCC)cc1 (racemic) [CR 823, O-(2-di-n-propylamino-ethyl)-N-benzoyl-DL-tyrosil-di-n-propylamide]
[1]
  LD50: 23 mg/kg
[2]
  Antisp. activity in vitro on the ileum of a cavy by Stim. BaCl2: ED50 pap./ED50 CR: 1.48
[3]
  ED50: 16.2 mg/kg

## CCCN(CCC)C(=O)C(Cc1ccc(OCCN(C)C)cc1)NC(=O)OCc1ccc([N+](=O)[O-])cc1 (centres unmarked) [CR 613]
[1]
  LD50: 100 mg/kg
[2]
  Antisp. activity in vitro on the ileum of a cavy by Stim. BaCl2: ED50 pap./ED50 CR: 0.68
[3]
  ED50: 58.7 mg/kg

## CCCCNC(=O)C(Cc1ccc(OCCN2CCCC2)cc1)NC(=O)c1ccc(Cl)cc1 (racemic) [CR 812, O-(2'-pyrrolidil-N'-ethyl)-N-(p-chloro-benzoyl)-DL-tyrosil-n-butylamide]
[1]
  LD50: 27 mg/kg
[2]
  Antisp. activity in vitro on the ileum of a cavy by Stim. BaCl2: ED50 pap./ED50 CR: 1.03
[3]
  ED50: 21 mg/kg

## CCNC(=O)C(Cc1ccc(OCCN(C(C)C)C(C)C)cc1)NC(=O)c1ccccc1 (racemic) [CR 711, O-(2-diisopropylamino-ethyl)-N-benzoyl-DL-tyrosil-ethylamide]
[1]
  LD50: 82 mg/kg
[2]
  Antisp. activity in vitro on the ileum of a cavy by Stim. BaCl2: ED50 pap./ED50 CR: 0.42
[3]
  Antisp. activity in transit test: ED50: inactive

## CCCN(CCC)C(=O)C(Cc1ccc(OCCN(CC)CC)cc1)NC(=O)c1ccccc1 [CR 804, O-(2-diethylamino-ethyl)-N-benzoyl-L-tyrosil-di-n-propylamide]
[1]
  LD50: 33.5 mg/kg
[2]
  Antisp. activity in vitro on the ileum of a cavy by Stim. BaCl2: ED50 pap./ED50 CR: 0.89
[3]
  ED50: 16.1 mg/kg

## CCNC(=O)C(Cc1ccc(OCCN(C)C)cc1)NC(=O)OCc1ccccc1 [CR 610, O-(2-dimethylamino-ethyl)-N-carbobenzoxy-L-tyrosil-ethylamide]
[1]
  LD50: 139 mg/kg
[2]
  Antisp. activity in vitro on the ileum of a cavy by Stim. BaCl2: ED50 pap./ED50 CR: 0.13
[3]
  ED50: 58.1 mg/kg

## CCCNC(=O)C(Cc1ccc(OCCN2CCCC2)cc1)NC(=O)c1ccccc1 (racemic) [CR 821, O-(2-pyrrolidil-N'-ethyl)-N-benzoyl-DL-tyrosil-n-propylamide]
[1]
  LD50: 53 mg/kg
[2]
  Antisp. activity in vitro on the ileum of a cavy by Stim. BaCl2: ED50 pap./ED50 CR: 0.13
[3]
  ED50: 15.6 mg/kg

## CCCN(CCC)C(=O)C(Cc1ccc(OCCN2CCCC2)cc1)NC(=O)c1ccccc1 (racemic) [CR 625, O-(2-pyrrolidil-N'-ethyl)-N-benzoyl-DL-tyrosil-di-n-propylamide]
[1]
  LD50: 32.6 mg/kg
[2]
  Antisp. activity in vitro on the ileum of a cavy by Stim. BaCl2: ED50 pap./ED50 CR: 0.52
[3]
  ED50: 21.1 mg/kg

## CCN(CC)CCOc1ccc(CC(NC(=O)c2ccccc2)C(N)=O)cc1 (racemic) [CR 740, O-(2-dietylamino-ethyl)-N-benzoyl-DL-tyrosil-amide]
[1]
  LD50: 102 mg/kg
[2]
  Antisp. activity in vitro on the ileum of a cavy by Stim. BaCl2: ED50 pap./ED50 CR: 0.36
[3]
  Antisp. activity in transit test: ED50: inactive

## CN(C)CCOc1ccc(C[C@H](NC(=O)OCc2ccccc2)C(=O)NCc2ccccc2)cc1 [CR 612, O-(2-dimethylamino-ethyl)-N-carbobenzoxy-L-tyrosil-benzylamide]
[1]
  LD50: 87.7 mg/kg
[2]
  Antisp. activity in vitro on the ileum of a cavy by Stim. BaCl2: ED50 pap./ED50 CR: 0.35
[3]
  ED50: 23 mg/kg

## CCN(CC)CCOc1ccc(CC(NC(=O)c2ccccc2)C(=O)N2CCCC2)cc1 (racemic) [CR 614, O-(2-diethylamino-ethyl)-N-benzoyl-DL-tyrosil-pyrrolidilamide]
[1]
  LD50: 58.7 mg/kg
[3]
  ED50: 53.2 mg/kg

## CCNC(=O)C(Cc1ccc(OCCN(C)C)cc1)NC(=O)c1ccccc1 (racemic) [CR 608, O-(2-dimethylamino-ethyl)-N-benzoyl-DL-tyrosil-ethylamide]
[1]
  LD50: 162 mg/kg
[3]
  ED50: 104 mg/kg

## CCCN(CCC)C(=O)C(Cc1ccc(OCCCN2CCN(Cc3ccccc3)CC2)cc1)NC(=O)c1ccccc1 (racemic) [CR 619, O-[3-(N"-benzylpiperazine)-N'-propyl]-N-benzoyl-DL-tyrosil-di-n-propylamide]
[1]
  LD50: 110 mg/kg
[3]
  ED50: 67.8 mg/kg
